Reference: patent US12559496B2, “Imidazopyrimidines as modulators of IL-17” (Janssen Pharmaceutica NV, priority 2020, dated 2026)

Assays:
[1] = test system: IL-17A-induced G-CSF production in human normal keratinocytes (NHK); assay: NHK Assay: IL-17A-induced G-CSF production in human normal keratinocytes; type: cell-based; details: IL-17A 5 ng/mL, 24 h, 5% FBS, simple average if tested more than once
Procedure: IL-17A acts directly on keratinocytes through binding to dimeric receptor IL-17RA/RC and drives the production of a number of inflammatory mediators known to be elevated in psoriasis lesional tissue. IL-17A small molecule inhibitors that block the IL-17A to interact with IL-17R would inhibit the IL-17A signaling in its targeted cells such as keratinocytes. The compound functional activity is evaluated for its impact on IL-17A-induced G-CSF production in human normal keratinocytes (NHK).
Adult normal human keratinocytes are cultured in keratinocyte growth medium (Lonza) in a flask till reaching ˜ 90% confluence, then cells are transferred to a 384-well plate at density of 3000-4000 cell/well. Recombinant human IL-17A (Gibco PHC9174) is pre-incubated with titrated compound or DMSO for 1 h at rt then added to the cell culture plate. The final concentration of IL-17A is 5 ng/mL and DMSO is 0.2%, in the culture containing 5% FBS. Cells are cultured/treated for 24 h at 37° C. Supernatants are collected and G-CSF production is measured through HTRF technology using Human G-CSF Kit (CisBio). G-CSF concentration was extrapolated from the standard curve and IC50 is determined using GraphPad Prism. Cell viability is also evaluated using CellTiter-Glo kit (Promega) and effect of compound on cell viability is compared to DMSO control.

[2] = target: IL-17A(FLAG-Tagged): IL-17RA(His-Tagged) (Homo sapiens, UniProt Q16552, K93Q); assay: IL-17A(FLAG-Tagged): IL-17RA(His-Tagged) Binding Disruption Eu-HTRF Assay; details: disruption of IL-17A/IL-17RA binding; simple average if tested more than once
Sequence of UniProt Q16552 (Q16552 with tags, fused parts or gaps K93Q): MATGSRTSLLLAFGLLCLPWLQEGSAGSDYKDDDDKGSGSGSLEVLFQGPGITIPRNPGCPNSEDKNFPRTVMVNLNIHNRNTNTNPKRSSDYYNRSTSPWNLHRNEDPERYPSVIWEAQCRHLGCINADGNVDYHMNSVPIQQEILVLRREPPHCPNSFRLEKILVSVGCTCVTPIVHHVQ
From the text: IL-17A(FLAG-Tagged): IL-17RA(His-Tagged) Binding Disruption Eu-HTRF Assay
An antibody directed against the FLAG tag of IL-17A (SEQ ID NO: 1) is labeled with the HTRF donor chromophore (Europium-cryptate). IL-17A is present as a dimer that is “locked into” this quaternary structure due to the formation of loop-spanning […] disulfide bridges. The construct of IL-17RA used in the assay excludes the […] portion of the receptor and is fused to a C-terminal 10×His tag (SEQ ID NO:2). An antibody directed against the His tag of the IL-17RA chimera is labeled with the HTRF acceptor chromophore (“D2”). The fluorescence-resonance energy transfer (FRET) depends on the vicinity of the donor chromophore to the acceptor, and interruption of the binding between the IL-17A and IL-17RA causes the reduction/loss of FRET. Therefore, this assay allows to evaluate the compound effect on the binding IL-17A and IL-17RA by monitoring the fluorescence intensity of donor vs acceptor. The assay is run as described below.
40 nL of 2-fold serial diluted compound solution for total 22 dilution points is added into each well of a 1536-well, white, low-volume, non-binding plate (Greiner #782904), then 2 μL of FLAG tagged IL-17A at 2× final concentration (2.5 nM) in solution of PBS+0.01% Triton-X100 is added to each well. The assay plate is briefly centrifuged then incubated for 1 h at rt. A mixed solution is prepared containing 2×5 nM 10HIS×IL-17RA, 2×2.5 nM Eu-anti-FLAG (CISBIO), 2×5 nM D2-anti-HIS (CISBIO) in PBS+0.01% Triton-X100+200 mM Potassium Fluoride (Sigma 60238) and 2 μL of mix is added to each well of the assay plate. The plate is briefly centrifuged then incubated for 2 h at rt. The HTRF intensities at the wavelength of donor (620 nm) and acceptor (665 nm) are measured using BMG Pherastar. The ratio between intensities at two wavelengths is calculated and plotted against the compound concentration and the data is fitted to a one-site competition model to yield IC50 of the compound.

Row | IC50 [2] [µM] | SMILES | IC50 [1] [µM] | IC50 ([1]; Homo sapiens, Keratinocyte) [µM]
1 | 0.47 | CC(CC(=O)N[C@@H](c1ccn2cc([C@@H](NC(=O)c3ncnn3CC3CC3)C3CCC(F)(F)CC3)nc2n1)C1CC1)C(F)(F)F (single isomer, unassigned) [Example 20, N—((S)-(7-((R)-Cyclopropyl((R*)-4,4,4-trifluoro-3-methylbutanamido)methyl)imidazo[1,2-a]pyrimidin-2-yl)(4,4-difluorocyclohexyl)methyl)-1-(cyclopropylmethyl)-1H-1,2,4-triazole-5-carboxamide] | 2.8 | –
2 | 0.89 | Cc1c(C(=O)N[C@H](c2cn3ccc(C(NC(=O)CCC(F)(F)F)C4CC4)nc3n2)C2CCC(F)(F)CC2)cnn1CCC(F)(F)F (single isomer, unassigned) [Example 38, N—((S)-(7-((S*)-Cyclopropyl(4,4,4-trifluorobutanamido)methyl)imidazo[1,2-a]pyrimidin-2-yl)(4,4-difluorocyclohexyl)methyl)-5-methyl-1-(3,3,3-trifluoropropyl)-1H-pyrazole-4-carboxamide] | 0.93 | –
3 | 13 | Cc1c(C(=O)N[C@H](c2cn3ccc(C(NC(=O)CCC(F)(F)F)C4CC4)nc3n2)C2CCC(F)(F)CC2)cnn1CCC(F)(F)F (single isomer, unassigned) [Example 39, N—((S)-(7-((R*)-Cyclopropyl(4,4,4-trifluorobutanamido)methyl)imidazo[1,2-a]pyrimidin-2-yl)(4,4-difluorocyclohexyl)methyl)-5-methyl-1-(3,3,3-trifluoropropyl)-1H-pyrazole-4-carboxamide] | ~20 | –
4 | 0.31 | O=C(CCC(F)(F)F)NC(c1ccn2cc([C@@H](NC(=O)c3cnn(CCC(F)(F)F)n3)C3CCC(F)(F)CC3)nc2n1)C1CC1 (single isomer, unassigned) [Example 40, N—((S)-(7-((S*)-Cyclopropyl(4,4,4-trifluorobutanamido)methyl)imidazo[1,2-a]pyrimidin-2-yl)(4,4-difluorocyclohexyl)methyl)-2-(3,3,3-trifluoropropyl)-2H-1,2,3-triazole-4-carboxamide] | 0.36 | –
5 | 2.4 | O=C(CCC(F)(F)F)NC(c1ccn2cc([C@@H](NC(=O)c3cnn(CCC(F)(F)F)n3)C3CCC(F)(F)CC3)nc2n1)C1CC1 (single isomer, unassigned) [Example 41, N—((S)-(7-((R*)-Cyclopropyl(4,4,4-trifluorobutanamido)methyl)imidazo[1,2-a]pyrimidin-2-yl)(4,4-difluorocyclohexyl)methyl)-2-(3,3,3-trifluoropropyl)-2H-1,2,3-triazole-4-carboxamide] | 2.5 | –
6 | 0.48 | O=C(CCC(F)(F)F)NC(c1ccn2cc([C@@H](NC(=O)c3ccn(CCC(F)(F)F)n3)C3CCC(F)(F)CC3)nc2n1)C1CC1 (single isomer, unassigned) [Example 42, N—((S)-(7-((S*)-Cyclopropyl(4,4,4-trifluorobutanamido)methyl)imidazo[1,2-a]pyrimidin-2-yl)(4,4-difluorocyclohexyl)methyl)-1-(3,3,3-trifluoropropyl)-1H-pyrazole-3-carboxamide] | 0.52 | –
7 | 5.7 | O=C(CCC(F)(F)F)NC(c1ccn2cc([C@@H](NC(=O)c3ccn(CCC(F)(F)F)n3)C3CCC(F)(F)CC3)nc2n1)C1CC1 (single isomer, unassigned) [Example 43, N—((S)-(7-((R*)-Cyclopropyl(4,4,4-trifluorobutanamido)methyl)imidazo[1,2-a]pyrimidin-2-yl)(4,4-difluorocyclohexyl)methyl)-1-(3,3,3-trifluoropropyl)-1H-pyrazole-3-carboxamide] | ~20 | –
8 | 0.22 | Cn1nccc1C(=O)N[C@H](c1cn2ccc(C(NC(=O)CCC(F)(F)F)C3CC3)nc2n1)C1CCC(F)(F)CC1 (single isomer, unassigned) [Example 44, N—((S)-(7-((S*)-Cyclopropyl(4,4,4-trifluorobutanamido)methyl)imidazo[1,2-a]pyrimidin-2-yl)(4,4-difluorocyclohexyl)methyl)-1-methyl-1H-pyrazole-5-carboxamide] | 0.17 | –
9 | 2.9 | Cn1nccc1C(=O)N[C@H](c1cn2ccc(C(NC(=O)CCC(F)(F)F)C3CC3)nc2n1)C1CCC(F)(F)CC1 (single isomer, unassigned) [Example 45, N—((S)-(7-((R*)-Cyclopropyl(4,4,4-trifluorobutanamido)methyl)imidazo[1,2-a]pyrimidin-2-yl)(4,4-difluorocyclohexyl)methyl)-1-methyl-1H-pyrazole-5-carboxamide] | 2.1 | –
10 | 2.6 | CC(C)n1nccc1C(=O)N[C@H](c1cn2ccc(C(NC(=O)CCC(F)(F)F)C3CC3)nc2n1)C1CCC(F)(F)CC1 (single isomer, unassigned) [Example 46, N—((S)-(7-((S*)-Cyclopropyl(4,4,4-trifluorobutanamido)methyl)imidazo[1,2-a]pyrimidin-2-yl)(4,4-difluorocyclohexyl)methyl)-1-isopropyl-1H-pyrazole-5-carboxamide] | 2.6 | –
11 | 0.41 | CC(C)n1nccc1C(=O)N[C@H](c1cn2ccc(C(NC(=O)CCC(F)(F)F)C3CC3)nc2n1)C1CCC(F)(F)CC1 (single isomer, unassigned) [Example 47, N—((S)-(7-((R*)-Cyclopropyl(4,4,4-trifluorobutanamido)methyl)imidazo[1,2-a]pyrimidin-2-yl)(4,4-difluorocyclohexyl)methyl)-1-isopropyl-1H-pyrazole-5-carboxamide] | 0.12 | –
12 | 0.5 | O=C(CCC(F)(F)F)NC(c1ccn2cc([C@@H](NC(=O)c3cnn(CCC(F)(F)F)c3)C3CCC(F)(F)CC3)nc2n1)C1CC1 (single isomer, unassigned) [Example 49, N—((S)-(7-((S*)-Cyclopropyl(4,4,4-trifluorobutanamido)methyl)imidazo[1,2-a]pyrimidin-2-yl)(4,4-difluorocyclohexyl)methyl)-1-(3,3,3-trifluoropropyl)-1H-pyrazole-4-carboxamide] | – | 0.74
13 | 0.36 | Cc1nonc1C(=O)N[C@H](c1cn2ccc([C@H](NC(=O)CC3CC3(F)F)C3CC3)nc2n1)C1CCC(F)(F)CC1 (single isomer, unassigned) [Example 51, N—((S)-(7-((R)-Cyclopropyl(2-((S*)-2,2-difluorocyclopropyl)acetamido)methyl)imidazo[1,2-a]pyrimidin-2-yl)(4,4-difluorocyclohexyl)methyl)-4-methyl-1,2,5-oxadiazole-3-carboxamide] | – | 2
14 | 0.68 | Cc1nonc1C(=O)N[C@H](c1cn2ccc([C@H](NC(=O)CC3CC3(F)F)C3CC3)nc2n1)C1CCC(F)(F)CC1 (single isomer, unassigned) [Example 52, N—((S)-(7-((R)-Cyclopropyl(2-((R*)-2,2-difluorocyclopropyl)acetamido)methyl)imidazo[1,2-a]pyrimidin-2-yl)(4,4-difluorocyclohexyl)methyl)-4-methyl-1,2,5-oxadiazole-3-carboxamide] | 2.8 | –
15 | 0.49 | Cc1conc1C(=O)N[C@H](c1cn2ccc([C@H](NC(=O)CC3CC3(F)F)C3CC3)nc2n1)C1CCC(F)(F)CC1 (single isomer, unassigned) [Example 53, N—((S)-(7-((R)-Cyclopropyl(2-((S*)-2,2-difluorocyclopropyl)acetamido)methyl)imidazo[1,2-a]pyrimidin-2-yl)(4,4-difluorocyclohexyl)methyl)-4-methylisoxazole-3-carboxamide] | – | 2.3
